This note sets out measurements from patent KR20190126525A, “신규 소듐채널 저해 화합물, 이의 제조방법, 및 이를 포함하는 소듐채널 관련 질환의 예방 또는 치료용 약학적 조성물” (이화여자대학교 산학협력단, priority 2018, dated 2019).

One assay has as its target T1, Nav1.7 (Homo sapiens, UniProt Q15858).
T1 construct: host or cells: HEK cells
The assay is described as follows: VIPR (voltage/ion probe reader) membrane potential assay, Nav1.7. In kind it is cell-based. Particulars: for inhibition at 10 µM: HEK293, HEK cells expressing hNav1.7, veratridine; for selective inhibitory activity against Nav1.7: Nav1.7 versus Nav1.8, 10uM, from Table 2.

The target in a further assay is T2, Nav1.8 (Homo sapiens, UniProt Q9Y5Y9).
T2 construct: host or cells: HEK cells
T2 sequence (Q9Y5Y9 whole entry): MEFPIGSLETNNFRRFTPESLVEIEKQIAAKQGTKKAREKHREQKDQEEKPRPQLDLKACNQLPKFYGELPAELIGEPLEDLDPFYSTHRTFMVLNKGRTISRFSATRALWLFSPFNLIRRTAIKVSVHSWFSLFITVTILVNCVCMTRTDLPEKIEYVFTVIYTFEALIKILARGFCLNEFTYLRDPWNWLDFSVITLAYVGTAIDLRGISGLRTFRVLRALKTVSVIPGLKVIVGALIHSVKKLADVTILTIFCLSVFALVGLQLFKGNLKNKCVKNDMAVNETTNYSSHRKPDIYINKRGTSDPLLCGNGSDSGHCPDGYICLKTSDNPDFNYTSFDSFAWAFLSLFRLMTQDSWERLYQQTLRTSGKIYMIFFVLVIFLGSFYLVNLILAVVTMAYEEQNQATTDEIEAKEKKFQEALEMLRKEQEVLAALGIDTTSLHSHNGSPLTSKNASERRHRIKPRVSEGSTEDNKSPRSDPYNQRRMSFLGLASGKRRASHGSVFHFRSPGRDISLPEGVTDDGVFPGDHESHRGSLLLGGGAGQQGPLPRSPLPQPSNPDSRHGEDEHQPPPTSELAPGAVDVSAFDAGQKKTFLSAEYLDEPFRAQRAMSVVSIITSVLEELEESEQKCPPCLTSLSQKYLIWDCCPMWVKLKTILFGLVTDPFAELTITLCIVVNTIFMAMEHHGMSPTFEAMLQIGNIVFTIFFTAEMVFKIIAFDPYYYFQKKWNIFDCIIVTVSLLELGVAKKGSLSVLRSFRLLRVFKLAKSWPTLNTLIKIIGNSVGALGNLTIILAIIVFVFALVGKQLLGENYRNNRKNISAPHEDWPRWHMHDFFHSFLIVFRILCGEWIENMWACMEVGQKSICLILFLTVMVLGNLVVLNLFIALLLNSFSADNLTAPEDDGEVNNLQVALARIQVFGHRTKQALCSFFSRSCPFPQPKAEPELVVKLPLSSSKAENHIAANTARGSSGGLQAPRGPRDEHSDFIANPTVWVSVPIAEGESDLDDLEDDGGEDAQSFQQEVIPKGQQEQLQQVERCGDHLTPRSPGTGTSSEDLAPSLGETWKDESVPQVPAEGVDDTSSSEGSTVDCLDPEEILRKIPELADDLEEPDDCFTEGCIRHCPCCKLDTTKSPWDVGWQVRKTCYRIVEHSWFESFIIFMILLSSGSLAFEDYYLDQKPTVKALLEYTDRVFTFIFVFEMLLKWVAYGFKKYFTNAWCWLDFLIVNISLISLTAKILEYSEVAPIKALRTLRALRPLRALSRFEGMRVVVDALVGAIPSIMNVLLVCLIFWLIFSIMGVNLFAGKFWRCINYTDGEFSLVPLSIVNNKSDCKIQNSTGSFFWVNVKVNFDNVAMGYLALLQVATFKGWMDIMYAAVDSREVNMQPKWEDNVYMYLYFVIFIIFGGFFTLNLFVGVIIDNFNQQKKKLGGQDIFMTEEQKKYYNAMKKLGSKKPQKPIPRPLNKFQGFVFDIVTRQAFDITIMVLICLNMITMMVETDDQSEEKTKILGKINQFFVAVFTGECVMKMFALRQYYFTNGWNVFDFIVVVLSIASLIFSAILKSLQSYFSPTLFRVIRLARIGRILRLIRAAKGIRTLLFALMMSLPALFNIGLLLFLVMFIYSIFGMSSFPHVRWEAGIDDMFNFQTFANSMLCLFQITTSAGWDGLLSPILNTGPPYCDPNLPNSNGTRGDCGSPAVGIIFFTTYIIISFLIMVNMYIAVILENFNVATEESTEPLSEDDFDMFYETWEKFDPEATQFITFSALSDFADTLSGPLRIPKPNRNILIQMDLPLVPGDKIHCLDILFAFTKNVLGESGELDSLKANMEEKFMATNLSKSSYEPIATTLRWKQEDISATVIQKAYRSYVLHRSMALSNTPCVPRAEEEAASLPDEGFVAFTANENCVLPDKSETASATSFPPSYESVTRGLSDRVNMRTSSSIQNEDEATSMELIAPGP
Put plainly: VIPR (voltage/ion probe reader) membrane potential assay, Nav1.8. In kind it is cell-based. Particulars: HEK293, HEK cells expressing hNav1.8, veratridine.

T1 sequence (Q15858 whole entry): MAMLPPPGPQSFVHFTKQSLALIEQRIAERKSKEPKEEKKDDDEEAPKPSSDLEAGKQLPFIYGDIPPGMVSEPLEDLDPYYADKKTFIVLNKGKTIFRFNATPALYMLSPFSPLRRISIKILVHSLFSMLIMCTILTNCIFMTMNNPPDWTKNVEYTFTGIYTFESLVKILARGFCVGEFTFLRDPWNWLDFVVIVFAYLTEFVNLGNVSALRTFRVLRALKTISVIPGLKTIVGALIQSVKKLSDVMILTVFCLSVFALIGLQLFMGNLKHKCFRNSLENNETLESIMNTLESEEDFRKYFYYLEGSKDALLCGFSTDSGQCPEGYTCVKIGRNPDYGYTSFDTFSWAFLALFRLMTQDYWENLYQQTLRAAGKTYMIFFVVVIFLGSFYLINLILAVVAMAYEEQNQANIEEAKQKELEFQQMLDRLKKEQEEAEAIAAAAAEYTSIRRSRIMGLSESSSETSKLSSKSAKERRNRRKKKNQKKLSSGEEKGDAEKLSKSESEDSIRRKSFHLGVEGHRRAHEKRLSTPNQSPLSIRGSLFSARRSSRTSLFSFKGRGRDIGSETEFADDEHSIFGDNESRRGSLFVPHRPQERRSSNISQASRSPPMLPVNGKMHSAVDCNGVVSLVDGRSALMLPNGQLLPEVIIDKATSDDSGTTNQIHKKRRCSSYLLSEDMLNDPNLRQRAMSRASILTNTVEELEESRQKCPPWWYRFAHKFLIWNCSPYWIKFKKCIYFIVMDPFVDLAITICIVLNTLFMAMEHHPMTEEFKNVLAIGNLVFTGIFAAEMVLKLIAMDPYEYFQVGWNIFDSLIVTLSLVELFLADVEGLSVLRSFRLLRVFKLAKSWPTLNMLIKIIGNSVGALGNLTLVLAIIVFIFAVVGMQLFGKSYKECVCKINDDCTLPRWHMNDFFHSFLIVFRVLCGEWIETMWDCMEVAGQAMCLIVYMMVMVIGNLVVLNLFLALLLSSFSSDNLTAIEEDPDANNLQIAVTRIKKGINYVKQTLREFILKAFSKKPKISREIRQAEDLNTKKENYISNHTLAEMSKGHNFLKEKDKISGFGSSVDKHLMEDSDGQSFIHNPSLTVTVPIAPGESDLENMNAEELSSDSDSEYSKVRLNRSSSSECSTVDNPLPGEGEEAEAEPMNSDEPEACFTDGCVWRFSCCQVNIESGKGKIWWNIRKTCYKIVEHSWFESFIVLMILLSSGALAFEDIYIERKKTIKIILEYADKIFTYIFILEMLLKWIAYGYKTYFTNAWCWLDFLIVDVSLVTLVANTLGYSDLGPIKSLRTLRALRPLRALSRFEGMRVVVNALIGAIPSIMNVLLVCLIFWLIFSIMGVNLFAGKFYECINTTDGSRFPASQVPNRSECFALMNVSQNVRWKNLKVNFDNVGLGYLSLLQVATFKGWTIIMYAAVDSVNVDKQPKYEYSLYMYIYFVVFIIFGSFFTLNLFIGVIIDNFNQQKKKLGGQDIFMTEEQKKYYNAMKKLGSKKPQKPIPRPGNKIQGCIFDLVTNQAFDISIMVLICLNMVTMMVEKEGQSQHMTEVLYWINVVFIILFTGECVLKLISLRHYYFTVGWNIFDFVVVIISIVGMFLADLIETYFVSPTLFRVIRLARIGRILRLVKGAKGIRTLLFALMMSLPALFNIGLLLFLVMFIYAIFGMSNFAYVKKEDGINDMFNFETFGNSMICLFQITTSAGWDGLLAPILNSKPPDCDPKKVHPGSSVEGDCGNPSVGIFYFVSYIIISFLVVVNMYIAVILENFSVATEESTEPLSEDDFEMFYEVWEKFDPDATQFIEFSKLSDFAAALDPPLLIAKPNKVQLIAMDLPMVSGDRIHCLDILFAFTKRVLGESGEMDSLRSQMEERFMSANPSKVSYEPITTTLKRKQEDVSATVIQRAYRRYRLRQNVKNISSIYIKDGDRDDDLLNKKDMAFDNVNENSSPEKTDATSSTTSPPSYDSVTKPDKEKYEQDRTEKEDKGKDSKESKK

Broadly, the inhibition is the change of the read-out against control, counted positive when it falls. On to `CC(CCc1ccccc1)NCc1ccc(Oc2ccc(Cl)cc2)cc1` (stereo not shown) [실시예 24, N-(4-(4-클로로페녹시)벤질)-4-페닐부탄-2-아민], for which the inhibition at 10 µM against Nav1.7 was 10.2%.
The same measure, in the same setting: in the case of `COc1cc(CNCc2c[nH]c3ccccc23)cc(OC)c1OC` [실시예 29, N-((1H-인돌-3-일)메틸)-1-(3,4,5-트리메톡시페닐)메탄아민] it was 16.4%.
Turning to `NC(=O)[C@@H](NCc1ccc(Oc2ccc(F)cc2)cc1)c1ccccc1` [실시예 10, (S)-2-(4-(4-플루오로페녹시)벤질아미노)-2-페닐아세트아미드], the results for the inhibition at 10 µM on Nav1.8 and at Nav1.7 were 11.3% and 31.3%, respectively.
As for `NC(=O)[C@@H](NCc1cc(-c2ccc(Cl)cc2)on1)c1ccccc1` [실시예 9, (S)-2-((5-(4-클로로페닐)이속사졸-3-일)메틸아미노)-2-페닐아세트아미드], on Nav1.8, the inhibition at 10 µM stood at 1.77%.
Regarding `COc1cc(CNCc2ccc(Oc3ccc(Cl)cc3)cc2)cc(OC)c1OC` [실시예 32, N-(4-(4-클로로페녹시)벤질)-1-(3,4,5-트리메톡시페닐)메탄아민], the inhibition at 10 µM against Nav1.7 is 15.2%.
Turning to `COc1cc(CNC(=O)c2ccc3ccccc3n2)cc(OC)c1OC` [실시예 41, N-(3,4,5-트리메톡시벤질)퀴놀린-2-카복스아미드], at Nav1.8, the inhibition at 10 µM amounted to 19.3%. In addition, on Nav1.7, the inhibition at 10 µM turned out to be 71.7% and the “selective inhibitory activity against Nav1.7” value (from here on “selective inhibitory activity”) is “선택적인 저해 활성”.
For `COc1ccc2[nH]cc(CN[C@@H](C)C(N)=O)c2c1` [실시예 5, (S)-2-((5-메톡시-1H-인돌-3-일)메틸아미노)프로판아미드], the inhibition at 10 µM on Nav1.8 came out at 18.3%; against Nav1.7, 4.3%.
For the compound `CC(CCc1ccccc1)NCc1ccc(-c2ccc(Cl)cc2)o1` (stereo not shown) [실시예 15, N-((5-(4-클로로페닐)퓨란-2-일)메틸)-4-페닐부탄-2-아민], the inhibition at 10 µM against Nav1.8 was 42.2%; at Nav1.7, 34.6%.
As for `COc1cc(CNCc2c[nH]c3c([N+](=O)[O-])cccc23)cc(OC)c1OC` [실시예 37, 1-(7-니트로-1H-인돌-3-일)-N-(3,4,5-트리메톡시벤질)메탄아민], the inhibition at 10 µM was determined as 8.81% on Nav1.8 and 4.08% against Nav1.7.
Turning to `C[C@H](NCc1c[nH]c2ccc(Cl)cc12)C(N)=O` [실시예 3, (S)-2-((5-클로로-1H-인돌-3-일)메틸아미노)프로판아미드], the inhibition at 10 µM against Nav1.8 was 20.7%; against Nav1.7, 2.46%.
In the case of `CC(CCc1ccccc1)NCc1ccc(-c2cncnc2)cc1` (stereo not shown) [실시예 19, 4-페닐-N-(4-(피리미딘-5-일)벤질)부탄-2-아민], at Nav1.7, the inhibition at 10 µM was found to be 29.8%.
`COc1ccc(-c2ccc(CNC(C)CCc3ccccc3)o2)cc1Cl` (stereo not shown) [실시예 18, N-((5-(3-클로로-4-메톡시페닐)퓨란-2-일)메틸)-4-페닐부탄-2-아민]: at Nav1.8, the inhibition at 10 µM came out at 6.75%. Moreover, at Nav1.7, the inhibition at 10 µM turned out to be 65.9% and the “selective inhibitory activity” value is on record as “선택적인 저해 활성”.
Consider `CC(CCc1ccccc1)NCc1ccc(-c2cccc(C(F)(F)F)c2)o1` (stereo not shown) [실시예 12, 4-페닐-N-((5-(3-(트리플루오로메틸)페닐)퓨란-2-일)메틸)부탄-2-아민], for which the inhibition at 10 µM against Nav1.8 was 54.4%. Also, on Nav1.7, the inhibition at 10 µM came out at 104% and the “selective inhibitory activity” value is given as “선택적인 저해 활성”.
In the case of `CC(CCc1ccccc1)NCc1c[nH]c2ccc(Cl)cc12` (stereo not shown) [실시예 21, N-((5-클로로-1H-인돌-3-일)메틸)-4-페닐부탄-2-아민], the inhibition at 10 µM at Nav1.7 was found to be 38.5%.
As for `CC(CCc1ccccc1)NCc1ccc(Oc2ccc(F)cc2)cc1` (stereo not shown) [실시예 23, N-(4-(4-플루오로페녹시)벤질)-4-페닐부탄-2-아민], on Nav1.7, the inhibition at 10 µM worked out at 33.9%.
In the case of `COc1cc(CNCc2ccc(Oc3ccc(F)cc3)cc2)cc(OC)c1OC` [실시예 31, N-(4-(4-플루오로페녹시)벤질)-1-(3,4,5-트리메톡시페닐)메탄아민], the inhibition at 10 µM against Nav1.7 came out at 16.6%.
On to `NC(=O)[C@@H](NCc1ccc(Oc2ccc(Cl)cc2)cc1)c1ccccc1` [실시예 11, (S)-2-(4-(4-클로로페녹시)벤질아미노)-2-페닐아세트아미드], for which the inhibition at 10 µM against Nav1.8 was 19.5%; against Nav1.7, 3.68%.
For the compound `COc1ccc2[nH]cc(CNCc3cc(OC)c(OC)c(OC)c3)c2c1` [실시예 36, 1-(5-메톡시-1H-인돌-3-일)-N-(3,4,5-트리메톡시벤질)메탄아민], the inhibition at 10 µM against Nav1.7 was found to be 23.7%.
Consider `CC(CCc1ccccc1)NC(=O)c1cccc2ccccc12` (stereo not shown) [실시예 27, N-(4-페닐부탄-2-일)-1-나프타미드], for which the inhibition at 10 µM was found to be 59.2% at Nav1.8 and 4.12% at Nav1.7.
With `CC(CCc1ccccc1)NCc1ccc(N2CCOCC2)cc1` (stereo not shown) [실시예 14, N-(4-모폴리노벤질)-4-페닐부탄-2-아민], the inhibition at 10 µM on Nav1.8 was determined as 10.2%. Further, on Nav1.7, the inhibition at 10 µM was 87.1% and the “selective inhibitory activity” value is “선택적인 저해 활성”.
For the compound `C[C@H](NCc1c[nH]c2ccc(Br)cc12)C(N)=O` [실시예 2, (S)-2-((5-브로모-1H-인돌-3-일)메틸아미노)프로판아미드], at Nav1.8, the inhibition at 10 µM was found to be 27.4%. In addition, at Nav1.7, the inhibition at 10 µM turned out to be 59.9% and the “selective inhibitory activity” value was “선택적인 저해 활성”.
As to `COc1cc(CNCc2c[nH]c3ccc(OCc4ccccc4)cc23)cc(OC)c1OC` [실시예 33, 1-(5-(벤질옥시)-1H-인돌-3-일)-N-(3,4,5-트리메톡시벤질)메탄아민], the values for the inhibition at 10 µM against Nav1.8 and against Nav1.7 were 5.87% and 34.9%, respectively.
For `NC(=O)[C@@H](NCc1c[nH]c2ccc(Cl)cc12)c1ccccc1` [실시예 7, (S)-2-((5-클로로-1H-인돌-3-일)메틸아미노)-2-페닐아세트아미드], on Nav1.8, the inhibition at 10 µM turned out to be 3.45%.
`COc1cc(CNC(=O)c2ccc(-c3ccccc3)cc2)cc(OC)c1OC` [실시예 38, N-(3,4,5-트리메톡시벤질)-[1,1'-바이페닐]-4-카복스아미드]: the inhibition at 10 µM on Nav1.8 is 18.3%; on Nav1.7, 6.9%.
For the compound `CC(CCc1ccccc1)NCc1ccc(N2CCN(C)CC2)cc1` (stereo not shown) [실시예 13, N-(4-(4-메틸피페라진-1-일)벤질)-4-페닐부탄-2-아민], on Nav1.8, the inhibition at 10 µM was found to be 4.97%. Moreover, on Nav1.7, the inhibition at 10 µM is 66.4% and the “selective inhibitory activity” value is “선택적인 저해 활성”.
For `COc1cc(CNCc2c[nH]c3cc(F)ccc23)cc(OC)c1OC` [실시예 35, 1-(6-플루오로-1H-인돌-3-일)-N-(3,4,5-트리메톡시벤질)메탄아민], the inhibition at 10 µM on Nav1.7 was determined as 38.2%.
In the case of `COc1cc(CNCc2c[nH]c3ccc(Br)cc23)cc(OC)c1OC` [실시예 34, 1-(5-브로모-1H-인돌-3-일)-N-(3,4,5-트리메톡시벤질)메탄아민], the inhibition at 10 µM on Nav1.8 amounted to 13.9%; on Nav1.7 it was 27%.
`Cc1onc(-c2ccc(Cl)cc2)c1C(=O)NC(C)CCc1ccccc1` (stereo not shown) [실시예 28, 3-(4-클로로페닐)-5-메틸-N-(4-페닐부탄-2-일)이속사졸-4-카복스아미드]: the inhibition at 10 µM against Nav1.7 came to 24.4%.
Take `COc1cc(CNCc2c(-c3ccccc3)[nH]c3ccccc23)cc(OC)c1OC` [실시예 30, 1-(2-페닐-1H-인돌-3-일)-N-(3,4,5-트리메톡시페닐)메탄아민]: the results for the inhibition at 10 µM against Nav1.8 and at Nav1.7 were 3.3% and 12.1%, respectively.
For the compound `CC(CCc1ccccc1)NCc1c[nH]c2ccccc12` (stereo not shown) [실시예 22, N-((1H-인돌-3-일)메틸)-4-페닐부탄-2-아민], the inhibition at 10 µM against Nav1.7 was determined as 14.2%.
For the compound `CC(CCc1ccccc1)NC(=O)c1ccc(-c2ccccc2)cc1` (stereo not shown) [실시예 25, N-(4-페닐부탄-2-일)-[1,1'-바이페닐]-4-카복스아미드], the inhibition at 10 µM against Nav1.8 worked out at 31.2%; against Nav1.7, 84%. The “selective inhibitory activity” value at Nav1.7 is given as “선택적인 저해 활성”.
With `CC(CCc1ccccc1)NCc1ccc(Oc2ccc(C#N)cc2)cc1` (stereo not shown) [실시예 20, 4-(4-((4-페닐부탄-2-일)아미노메틸)페녹시)벤조나이트릴], the inhibition at 10 µM against Nav1.8 is 42.2%. At Nav1.7, the inhibition at 10 µM came out at 106% and the “selective inhibitory activity” value is “선택적인 저해 활성”.
Take `C[C@H](NCc1c[nH]c2ccc(OCc3ccccc3)cc12)C(N)=O` [실시예 1, (S)-2-((5-(벤질옥시)-1H-인돌-3-일)메틸아미노)프로판아미드]: the inhibition at 10 µM was 19.7% against Nav1.8 and 5.13% at Nav1.7.
